Test results published in ChEMBL document CHEMBL1201862, “PubChem BioAssay data set” (2004).
The source made the active and inactive calls.

Assays:
[1] = molecular target: Glyceraldehyde-3-phosphate dehydrogenase (Homo sapiens, UniProt P04406)
[2] = molecular target: T1, Intestinal-type alkaline phosphatase (Homo sapiens, UniProt P09923); assay: human intestinal alkaline phosphatase activators, dose response, biochemical, luminescence, uHTS hits (AID 463120); format: functional
[3] = molecular target: T2, Intestinal-type alkaline phosphatase (Mus musculus, UniProt P24822); assay: PubChem AID 488874; format: functional
T2 sequence (P24822 whole entry): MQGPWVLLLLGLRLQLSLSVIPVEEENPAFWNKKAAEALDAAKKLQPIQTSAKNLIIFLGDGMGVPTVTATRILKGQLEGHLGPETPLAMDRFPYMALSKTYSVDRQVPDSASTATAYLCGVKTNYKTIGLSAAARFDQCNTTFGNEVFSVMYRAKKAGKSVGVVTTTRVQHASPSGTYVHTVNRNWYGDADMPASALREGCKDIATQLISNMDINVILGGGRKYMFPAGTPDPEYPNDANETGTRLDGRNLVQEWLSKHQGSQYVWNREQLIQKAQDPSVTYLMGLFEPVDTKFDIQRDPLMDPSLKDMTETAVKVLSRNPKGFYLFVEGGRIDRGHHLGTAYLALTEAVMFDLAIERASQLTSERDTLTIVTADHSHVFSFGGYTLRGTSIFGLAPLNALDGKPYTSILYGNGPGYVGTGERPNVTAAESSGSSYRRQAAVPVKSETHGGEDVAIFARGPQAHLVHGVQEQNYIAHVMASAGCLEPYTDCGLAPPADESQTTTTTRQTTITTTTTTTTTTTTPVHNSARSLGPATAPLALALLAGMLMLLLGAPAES

[4] = molecular target: T1, Intestinal-type alkaline phosphatase; assay: activation of human intestinal alkaline phosphatase – biochemical, luminescent, uHTS hits, set 2, dose response (AID 488817); format: functional;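 further: potency of activators that raise enzyme activity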
[5] = molecular target: Alkaline phosphatase, placental type (Homo sapiens, UniProt P05187); assay: human placental alkaline phosphatase inhibition – biochemical, luminescence, confirmation (AID 1512); format: functional
Chain of Alkaline phosphatase, placental type (P05187 whole entry, the tested form may be a part): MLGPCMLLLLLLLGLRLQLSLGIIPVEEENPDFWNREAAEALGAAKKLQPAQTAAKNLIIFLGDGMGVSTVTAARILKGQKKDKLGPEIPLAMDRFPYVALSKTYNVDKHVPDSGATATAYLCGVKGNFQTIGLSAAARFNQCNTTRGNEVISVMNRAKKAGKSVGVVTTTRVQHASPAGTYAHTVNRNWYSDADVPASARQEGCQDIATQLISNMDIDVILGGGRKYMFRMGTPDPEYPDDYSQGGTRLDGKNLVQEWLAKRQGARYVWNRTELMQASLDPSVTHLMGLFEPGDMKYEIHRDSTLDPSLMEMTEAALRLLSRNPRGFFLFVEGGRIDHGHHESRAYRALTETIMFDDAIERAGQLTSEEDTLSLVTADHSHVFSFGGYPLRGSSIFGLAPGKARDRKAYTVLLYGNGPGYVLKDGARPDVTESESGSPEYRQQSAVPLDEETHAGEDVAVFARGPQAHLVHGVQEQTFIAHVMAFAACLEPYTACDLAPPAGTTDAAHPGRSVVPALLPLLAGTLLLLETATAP

[6] = molecular target: T3, Runt-related transcription factor 1/Core-binding factor subunit beta (Homo sapiens, UniProt Q01196+Q13951); assay: disruptors of Runt domain/CBFb-SMMHC interaction – biochemical, FRET, Cerulean-Runt, Venus-CBFb-SMMHC, uHTS, […] (AID 1434); format: protein assay
T3 sequence (Q01196 whole entry, the tested form may be a part): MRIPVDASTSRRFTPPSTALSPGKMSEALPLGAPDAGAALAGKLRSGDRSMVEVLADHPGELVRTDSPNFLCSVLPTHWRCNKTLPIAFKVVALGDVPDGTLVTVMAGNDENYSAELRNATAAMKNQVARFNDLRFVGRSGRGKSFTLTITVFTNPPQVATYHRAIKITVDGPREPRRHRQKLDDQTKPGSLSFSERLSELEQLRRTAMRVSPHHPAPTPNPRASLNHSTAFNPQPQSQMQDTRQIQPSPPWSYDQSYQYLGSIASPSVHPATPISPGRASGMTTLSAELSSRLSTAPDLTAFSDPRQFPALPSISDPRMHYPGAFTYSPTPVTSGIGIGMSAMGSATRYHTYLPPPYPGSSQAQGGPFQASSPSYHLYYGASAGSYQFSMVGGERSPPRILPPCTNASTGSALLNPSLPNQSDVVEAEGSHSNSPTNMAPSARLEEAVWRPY
T3 sequence (Q13951 whole entry, the tested form may be a part): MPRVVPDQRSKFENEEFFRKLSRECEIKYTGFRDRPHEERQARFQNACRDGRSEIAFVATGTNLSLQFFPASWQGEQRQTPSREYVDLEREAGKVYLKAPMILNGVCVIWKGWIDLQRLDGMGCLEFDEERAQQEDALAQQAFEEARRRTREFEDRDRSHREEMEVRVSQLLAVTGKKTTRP

[7] = tested on: Streptococcus sp. 'group A'; assay: Streptococcus pyogenes SK(-)GAS viability under kanamycin – luminescence, BacTiterGlo, confirmation, counter-screen for streptokinase expression inhibitor project, dose response (AID 1900); format: functional, organism-based
Streptococcus = assay: GAS UMAA2166 growth inhibition – luminescence, BacTiterGlo, counter-screen for streptokinase expression inhibitor project, dose response (AID 1915); format: functional, organism-based;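 further: potency for reduction of bacterial viability or growth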
[8] = molecular target: T3, Runt-related transcription factor 1/Core-binding factor subunit beta; assay: Runt domain/CBFb-SMMHC interaction disruptors – biochemical, TR-FRET (AID 1438); format: protein assay
HEK293 [9] = assay: cells; format: functional, cell-based; settings: Homo sapiens
HEK293 [10] = assay: cells; format: functional, cell-based; settings: Homo sapiens; remark: listed apart in the source
[11] = molecular target: Nucleotide-binding oligomerization domain-containing protein 2 (Homo sapiens, UniProt Q9HC29); assay: inhibition of NOD2-driven NF-kB reporter – cell-based, luminescence, uHTS, HEK293 (AID 1566); format: functional
[12] = non-specific 3'UTR reporter inhibition in Clone20-Shn3RL – cell-based, Renilla luciferase, cherry-picked, counter-screen for Shn3 inhibitor project, dose response (AID 624133); format: functional
[13] = general cell-killing toxicity readout – plate reader, dry powder samples, cytotoxicity control for PAX8 inhibitor project, dose response (AID 743021); format: functional, cell-based
Paired box protein Pax-8 = Paired box protein Pax-8 (Homo sapiens, UniProt Q06710); assay: PAX8 transcriptional activity inhibition in RMG-I – RMG-I cells, luciferase, cherry-pick, dose response (AID 687027); format: functional, cell-based;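 further: luciferase reporter driven by Pax8 target thyroperoxidase promoter measured by SteadyGlo luminescence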
[14] = molecular target: G-protein coupled receptor 55 (Homo sapiens, UniProt Q9Y2T6); assay: selective activators of receptor GPR55 – imaging, U2OS cells, beta-arrestin-GFP redistribution, primary screen (AID 1961); format: functional
Chain of G-protein coupled receptor 55 (Q9Y2T6 whole entry): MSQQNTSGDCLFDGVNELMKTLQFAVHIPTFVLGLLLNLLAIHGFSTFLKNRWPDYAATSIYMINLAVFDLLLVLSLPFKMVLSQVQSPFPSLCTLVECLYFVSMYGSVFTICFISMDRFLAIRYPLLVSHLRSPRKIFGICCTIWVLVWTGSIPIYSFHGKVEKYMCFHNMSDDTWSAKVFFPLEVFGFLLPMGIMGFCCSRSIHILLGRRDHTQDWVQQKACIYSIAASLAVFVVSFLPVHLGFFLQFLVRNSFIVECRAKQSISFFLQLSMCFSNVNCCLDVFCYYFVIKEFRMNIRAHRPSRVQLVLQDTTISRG

HEK293 [15] = assay: NOD2 signaling inhibitors in MDP-stimulated cells, cell-based, uHTS, luminescence (AID 2001); format: functional; settings: Homo sapiens
HEK293 [16] = assay: inhibition of NOD1-driven NF-kB reporter – cell-based, luminescence, uHTS, primary screen (AID 1578); format: functional; settings: Homo sapiens
[17] = loss of viability in HepG2 cells – cell-based, CellTiter-Glo, cherry-picked, cytotoxicity control for Shn3 inhibitor project, dose response (AID 624134); format: functional
HEK293 [18] = assay: cells; format: functional, cell-based; settings: Homo sapiens; remark: listed apart in the source
[19] = reduction of Shn3 3'UTR-driven luciferase in osteoblasts – cell-based, Clone20 osteoblasts, firefly luciferase, cherry-picked, dose response (AID 624132); format: functional;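 further: firefly luciferase luminescence from reporter carrying the Shn3 3'UTR in osteoblasts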
Cytochrome P450 2D6 = Cytochrome P450 2D6 (Homo sapiens, UniProt P10635);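 further: CYP2D6 member of a cytochrome P450 panel assay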
Chain of Cytochrome P450 2D6 (P10635 whole entry): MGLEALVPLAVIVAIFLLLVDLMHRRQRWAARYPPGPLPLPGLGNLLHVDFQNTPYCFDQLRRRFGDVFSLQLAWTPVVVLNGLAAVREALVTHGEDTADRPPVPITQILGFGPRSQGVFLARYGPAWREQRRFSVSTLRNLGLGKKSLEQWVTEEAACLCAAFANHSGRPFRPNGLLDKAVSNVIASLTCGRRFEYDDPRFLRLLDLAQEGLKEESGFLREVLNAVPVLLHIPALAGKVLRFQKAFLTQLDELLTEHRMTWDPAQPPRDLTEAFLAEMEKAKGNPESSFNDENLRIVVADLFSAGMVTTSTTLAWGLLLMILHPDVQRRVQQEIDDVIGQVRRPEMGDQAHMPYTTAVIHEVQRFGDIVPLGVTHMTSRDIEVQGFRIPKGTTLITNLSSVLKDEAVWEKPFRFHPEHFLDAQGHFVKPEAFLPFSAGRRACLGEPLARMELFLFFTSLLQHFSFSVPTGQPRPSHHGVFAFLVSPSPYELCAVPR

[20] = Luminescence Cell-Based Dose Retest to Confirm Inhibitors of Cancer Stem Cells. [Related pubchem assays (depositor defined):AID2717, AID2721]; format: functional; settings: Homo sapiens
INS1 = assay: INS-1E survival protection against cytokine death – cell-based, luminescence, retest, dose response (AID 449756); format: functional; settings: Rattus norvegicus;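 further: cell death triggered by IL-1 beta plus TNF-alpha plus IFN-gamma mixture; protective hits raise ATP signal compared with cytokine alone wells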
Cytochrome P450 3A4 = Cytochrome P450 3A4 (Homo sapiens, UniProt P08684);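 further: CYP3A4 tested as one member of a cytochrome P450 panel screen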
[21] = NIH3T3 cell viability loss – ATP luminescence, mouse fibroblasts, counter-screen, dose response (AID 2010); format: functional, cell-based;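 further: cells exposed to compound for about 90 hours before reading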
Mucolipin-3 = Mucolipin-3 (Homo sapiens, UniProt Q8TDD5); assay: Fluorescence counterscreen assay for […] agonists: dose response cell-based high-throughput screening assay to identify agonists of the transient receptor potential channel ML3 (TRPML3). [Related pubchem assays: 1424, 1448 ]; format: functional
Ion channel NompC = Ion channel NompC (Danio rerio, UniProt Q7T1G6); assay: Dose response cell-based high-throughput screening assay for agonists of the transient receptor potential channel N1 (TRPN1). [Related pubchem assays (depositor defined):AID1424, AID1448]; format: functional
[22] = Trypanosoma cruzi growth suppression in host cells – NIH3T3 host cells, beta-gal luminescence, confirmation (AID 2044); format: functional, cell-based;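 further: intracellular parasites grown in NIH/3T3 mouse fibroblasts as host cells; luminescent beta-galactosidase reporter signal from transgenic T. cruzi replicating inside host cells; inhibitors lower the luminescence signal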
[23] = molecular target: T1, Intestinal-type alkaline phosphatase; assay: activation of human intestinal alkaline phosphatase – biochemical, dose response (AID 488873); format: functional
[24] = molecular target: T2, Intestinal-type alkaline phosphatase; assay: mouse intestinal alkaline phosphatase activators, dose response, biochemical, luminescence, uHTS hits (AID 488783); format: functional
Large T antigen = Large T antigen (Simian virus 40, UniProt P03070); format: functional, Betapolyomavirus macacae;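 further: Confirmatory-stage PubChem screen for compounds that inhibit SV40 T antigen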
Vero = assay: viability of Vero cells under compound – cytotoxicity control for flavivirus capping enzyme inhibitors (AID 588742); format: functional; settings: Chlorocebus sabaeus
[25] = molecular target: T4, Alkaline phosphatase, tissue-nonspecific isozyme (Homo sapiens, UniProt P05186); assay: activation of tissue-nonspecific alkaline phosphatase – biochemical, TNAP isozyme, mouse IAP uHTS hits, selectivity assay for mouse IAP activator project, dose response (AID 488880); format: functional
T4 sequence (P05186 whole entry): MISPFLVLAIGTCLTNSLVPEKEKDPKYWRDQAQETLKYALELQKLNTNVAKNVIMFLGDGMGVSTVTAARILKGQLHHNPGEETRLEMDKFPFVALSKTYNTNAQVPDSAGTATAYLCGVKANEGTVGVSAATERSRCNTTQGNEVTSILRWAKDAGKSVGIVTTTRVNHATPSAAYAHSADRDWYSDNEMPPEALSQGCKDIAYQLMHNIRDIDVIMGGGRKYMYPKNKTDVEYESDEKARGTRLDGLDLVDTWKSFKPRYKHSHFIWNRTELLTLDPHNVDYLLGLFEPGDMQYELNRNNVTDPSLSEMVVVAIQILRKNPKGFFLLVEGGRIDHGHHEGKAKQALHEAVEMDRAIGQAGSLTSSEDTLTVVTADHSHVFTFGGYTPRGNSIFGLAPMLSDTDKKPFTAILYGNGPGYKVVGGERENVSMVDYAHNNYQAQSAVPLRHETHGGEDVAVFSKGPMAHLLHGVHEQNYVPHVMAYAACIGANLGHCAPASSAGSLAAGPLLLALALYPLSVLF

[26] = molecular target: T3, Runt-related transcription factor 1/Core-binding factor subunit beta; assay: Confirmation of compounds inhibiting the binding between the RUNX1 Runt domain and CBFb-SMMHC via a fluorescence resonance energy transfer (FRET) assay. [Related pubchem assays (depositor defined):AID1434, AID1438, AID1496, AID1550, AID1645]; format: protein assay
[27] = molecular target: T3, Runt-related transcription factor 1/Core-binding factor subunit beta; assay: Confirmation of compounds inhibiting the binding between the RUNX1 Runt domain and CBFb-SMMHC via a time resolved fluorescence resonance energy transfer (TR-FRET) assay. [Related pubchem assays (depositor defined):AID1434, AID1438, AID1496, AID1560, AID1645]; format: protein assay
Coagulation factor XII = molecular target: T5, Coagulation factor XII (Homo sapiens, UniProt P00748); assay: activated coagulation factor XII inhibitor potency, concentration-effect curve, cell-free (AID 716); format: functional
T5 sequence (P00748 whole entry): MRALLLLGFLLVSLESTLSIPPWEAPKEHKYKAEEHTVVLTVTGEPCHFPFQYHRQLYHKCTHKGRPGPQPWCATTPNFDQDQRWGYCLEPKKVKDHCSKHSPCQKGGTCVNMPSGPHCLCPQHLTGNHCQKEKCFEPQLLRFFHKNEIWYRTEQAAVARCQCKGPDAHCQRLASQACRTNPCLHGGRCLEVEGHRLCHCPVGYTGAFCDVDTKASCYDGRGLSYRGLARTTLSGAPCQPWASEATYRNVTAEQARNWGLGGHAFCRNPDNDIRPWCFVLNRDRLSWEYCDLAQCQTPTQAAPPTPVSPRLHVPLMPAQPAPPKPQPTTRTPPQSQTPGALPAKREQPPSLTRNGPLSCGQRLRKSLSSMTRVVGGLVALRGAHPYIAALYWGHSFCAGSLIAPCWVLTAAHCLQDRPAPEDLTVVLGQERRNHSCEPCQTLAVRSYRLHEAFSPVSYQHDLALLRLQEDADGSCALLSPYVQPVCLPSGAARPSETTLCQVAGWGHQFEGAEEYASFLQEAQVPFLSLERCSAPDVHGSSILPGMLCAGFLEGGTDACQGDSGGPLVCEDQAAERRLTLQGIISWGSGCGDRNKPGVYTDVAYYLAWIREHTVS

[28] = PhoP promoter GFP reporter reduction in Typhimurium – purified and synthesized compounds, set 2, PhoP regulon inhibitor project, dose response (AID 2831); format: functional
[29] = molecular target: Kappa-type opioid receptor (Homo sapiens, UniProt P41145); assay: SAR analysis of small molecule agonists of the kappa opioid receptor via a luminescent beta-arrestin assay - Set 3. [Related pubchem assays (depositor defined):AID1777, AID1785, AID1786, AID1966, AID2133, AID2136, AID2284, AID2500]; format: functional
[30] = molecular target: Tyrosine-protein phosphatase non-receptor type 7 (Homo sapiens, UniProt P35236); assay: inhibition of hematopoietic tyrosine phosphatase HePTP – biochemical, set 2, SAR follow-up (AID 449736); format: functional
cells [31] = format: functional, cell-based
cells [32] = format: functional, cell-based; remark: listed apart in the source
cells [33] = format: functional, cell-based; settings: HEK-CNG
SUMO-activating enzyme [34] = molecular target: T6, SUMO-activating enzyme (Homo sapiens, UniProt Q9UBT2); assay: blockers of UBC9-mediated SUMO conjugation – biochemical, AlphaScreen, SUMOylation inhibitor project, confirmation (AID 2018); format: functional
T6 sequence (Q9UBE0 whole entry): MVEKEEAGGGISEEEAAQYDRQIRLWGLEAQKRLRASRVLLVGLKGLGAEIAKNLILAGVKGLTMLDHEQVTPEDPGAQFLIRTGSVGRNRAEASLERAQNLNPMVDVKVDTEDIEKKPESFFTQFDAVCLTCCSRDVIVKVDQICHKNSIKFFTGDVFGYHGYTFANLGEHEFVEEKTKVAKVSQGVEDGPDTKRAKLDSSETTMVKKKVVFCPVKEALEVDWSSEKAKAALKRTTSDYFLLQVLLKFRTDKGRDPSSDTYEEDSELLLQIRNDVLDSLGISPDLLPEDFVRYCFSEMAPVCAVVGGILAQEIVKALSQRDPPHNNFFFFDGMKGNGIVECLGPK
T6 sequence (Q9UBT2 whole entry): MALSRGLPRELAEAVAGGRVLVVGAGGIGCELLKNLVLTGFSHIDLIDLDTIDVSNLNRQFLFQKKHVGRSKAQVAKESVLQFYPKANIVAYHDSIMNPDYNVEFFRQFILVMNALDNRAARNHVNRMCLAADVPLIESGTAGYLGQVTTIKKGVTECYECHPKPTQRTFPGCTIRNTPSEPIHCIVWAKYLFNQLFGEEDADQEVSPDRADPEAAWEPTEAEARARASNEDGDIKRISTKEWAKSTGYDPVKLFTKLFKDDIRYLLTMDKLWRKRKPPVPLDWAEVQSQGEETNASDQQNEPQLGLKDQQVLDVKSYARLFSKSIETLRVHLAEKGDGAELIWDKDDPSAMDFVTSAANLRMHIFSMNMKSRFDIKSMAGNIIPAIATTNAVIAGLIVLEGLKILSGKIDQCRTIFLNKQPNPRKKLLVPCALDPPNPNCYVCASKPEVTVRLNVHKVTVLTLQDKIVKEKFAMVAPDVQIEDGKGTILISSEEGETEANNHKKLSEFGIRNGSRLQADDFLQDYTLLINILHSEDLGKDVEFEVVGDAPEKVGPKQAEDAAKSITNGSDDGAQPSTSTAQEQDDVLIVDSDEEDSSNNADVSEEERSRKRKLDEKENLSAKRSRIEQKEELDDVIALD

SUMO-activating enzyme [35] = molecular target: T6, SUMO-activating enzyme; assay: blockers of SAE1/SAE2–UBC9 SUMO transfer – biochemical, HTRF, uHTS, primary screen (AID 2006); format: protein-complex assay
Galanin receptor type 3 = Galanin receptor type 3 (Homo sapiens, UniProt O60755); assay: Fluorescence-based cell-based primary high throughput dose response assay to identify antagonists of the Galanin Receptor 3 (GalR3).; format: functional
Albumin = Albumin (Bos taurus, UniProt P02769); assay: Counterscreen for inhibitors of T-cell receptor (TCR)-CD3 interaction: Fluorescence-based biochemical high throughput dose response assay to identify inhibitors of T-cell receptor (TCR)-CD3 interaction using a TAMRA-labeled BSA probe.; format: functional
Chain of Albumin (P02769 whole entry): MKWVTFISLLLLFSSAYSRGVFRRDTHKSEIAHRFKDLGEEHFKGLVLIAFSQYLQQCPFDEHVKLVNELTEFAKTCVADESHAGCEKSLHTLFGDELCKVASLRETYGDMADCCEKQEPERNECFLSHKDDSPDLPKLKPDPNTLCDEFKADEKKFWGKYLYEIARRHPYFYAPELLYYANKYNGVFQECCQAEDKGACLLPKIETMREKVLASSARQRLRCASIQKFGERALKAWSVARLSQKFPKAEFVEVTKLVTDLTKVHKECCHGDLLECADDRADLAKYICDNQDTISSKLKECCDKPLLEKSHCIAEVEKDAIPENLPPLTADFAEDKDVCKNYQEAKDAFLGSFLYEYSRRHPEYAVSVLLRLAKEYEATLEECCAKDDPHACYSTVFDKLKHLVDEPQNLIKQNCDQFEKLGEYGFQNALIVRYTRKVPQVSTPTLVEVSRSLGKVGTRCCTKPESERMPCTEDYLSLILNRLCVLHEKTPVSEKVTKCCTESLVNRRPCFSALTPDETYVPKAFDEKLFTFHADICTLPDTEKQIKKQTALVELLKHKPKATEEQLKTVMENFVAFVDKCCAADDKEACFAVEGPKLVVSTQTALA

T1 sequence (P09923 whole entry): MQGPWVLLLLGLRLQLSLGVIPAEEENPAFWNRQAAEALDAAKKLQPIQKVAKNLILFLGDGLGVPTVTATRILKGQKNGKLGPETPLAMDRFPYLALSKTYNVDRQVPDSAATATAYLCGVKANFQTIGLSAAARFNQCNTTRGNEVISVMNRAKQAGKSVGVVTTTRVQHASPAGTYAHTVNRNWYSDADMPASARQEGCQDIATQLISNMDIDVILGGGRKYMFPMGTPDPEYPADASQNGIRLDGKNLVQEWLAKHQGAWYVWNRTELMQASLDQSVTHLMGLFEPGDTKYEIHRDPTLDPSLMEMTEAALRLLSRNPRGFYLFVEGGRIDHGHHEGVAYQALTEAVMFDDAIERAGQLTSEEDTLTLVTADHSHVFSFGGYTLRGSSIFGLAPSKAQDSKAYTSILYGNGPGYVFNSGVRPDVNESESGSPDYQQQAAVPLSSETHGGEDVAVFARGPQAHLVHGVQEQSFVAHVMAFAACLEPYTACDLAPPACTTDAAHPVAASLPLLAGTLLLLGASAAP

Cc1cc(OCC(=O)Nc2nc[nH]n2)ccc1Cl
IC50 [1]: > 10 µM (inconclusive)
EC50 [2]: 10.7 µM (active)
IC50 [3]: > 100 µM (inactive)
EC50 [4]: 21 µM (active)
IC50 [5]: > 100 µM (inactive)

COCCNC(=O)c1c(NC(=O)c2ccc(Br)o2)n(Cc2ccccc2)c2nc3ccccc3nc12
IC50 [6]: 2.14 µM (active)
EC50 [7]: 1.9 µM (active)
EC50 (Streptococcus): 4.36 µM (active)
IC50 [8]: > 100 µM (inactive)

CCOc1ccc(C(=O)C(CCC(CN(C)C)C(=O)c2ccc(OCC)cc2)CN(C)C)cc1 (configuration not stated)
IC50 (HEK293 [9]): 6.72 µM (active)
IC50 (HEK293 [10]): 1.53 µM (active)
EC50 [11]: > 20 µM (inactive)
AC50 [12]: 7.72 µM (active)
AC50 [13]: 36.7 µM (active)
AC50 (Paired box protein Pax-8): 4.27 µM (active)
EC50 [14]: > 32 µM (inactive)
IC50 (HEK293 [15]): 2.48 µM (active)
EC50 (HEK293 [16]): 15.9 µM (active)
AC50 [17]: 6.77 µM (active)
IC50 (HEK293 [18]): > 20 µM (inactive)
AC50 [19]: 1.61 µM (active)

COC(=O)c1cccc(NC(=O)Nc2ccc(Cl)c(Cl)c2)c1
AC50 (Cytochrome P450 2D6): 22.4 µM (inconclusive)
AC50 [20]: 2.77 µM (active)
AC50 (INS1): 6.38 µM (active)
AC50 (Cytochrome P450 3A4): 22.4 µM (inconclusive)
EC50 [21]: > 60 µM (inconclusive)
EC50 (Mucolipin-3): > 29.9 µM (not active)
EC50 (Ion channel NompC): > 29.9 µM (inactive)
EC50 [22]: 2.15 µM (active)

O=C(CN1C(=O)/C(=C/c2ccco2)SC1=S)NC1CCS(=O)(=O)C1 (configuration not stated)
EC50 [23]: > 100 µM (inactive)
EC50 [24]: 2.03 µM (active)
IC50 (Large T antigen): 85 µM (active)
CC50 (Vero): > 40 µM (active)
EC50 [25]: > 100 µM (inactive)

Cc1cc(C=NNC(=O)Cn2c3ccccc3c(=O)c3ccccc32)c(C)n1-c1ccc(Cl)cc1
IC50 [26]: 3.58 µM (active)
IC50 [27]: 13.6 µM (active)

COc1ccc2oc(C)c(C(=O)Cn3ccnc3)c2c1
IC50 (Coagulation factor XII): > 50 µM (inactive)

O=C(Nc1ccc(Cl)cc1)N1CCCN(Cc2ccccc2F)C1
IC50 [28]: > 125 µM (active)

COc1ccc(Cn2c(SCc3ccccc3)nnc2-c2ccccn2)cc1
EC50 [29]: > 20 µM (inactive)

NS(=O)(=O)c1ccc(NC(=S)Nc2ccc3c(c2)CCC3)cc1
IC50 [30]: 7.93 µM (active)

C/C(=N\OCc1nc2ccccc2c(=O)n1/N=C/c1cc(C)cc([N+](=O)[O-])c1O)c1ccccc1
EC50 (cells [31]): 78 µM (active)
EC50 (cells [32]): > 350 µM (not active)
EC50 (cells [33]): > 29.9 µM (inactive)
IC50 (SUMO-activating enzyme [34]): 1.2 µM (active)
IC50 (SUMO-activating enzyme [35]): 8.77 µM (active)
IC50 (Galanin receptor type 3): 3.39 µM (active)
IC50 (Albumin): > 94.1 µM (inactive)
